Like-named read-outs stand apart in the source and are kept apart here.
Legend:
GLP-1R = GLP-1R (Homo sapiens, UniProt P43220); assay: GLP-1R activation: cAMP increase in CHO cells stably expressing GLP-1R; assay type: cell-based
[1] = Microsomal stability, human liver microsomes (predicted hepatic clearance); details: predicted from in vitro microsomal stability data
[2] = cAMP increase, CHO cells stably expressing GLP-1R, 10 point dose response, 30 minutes incubation, read-out: EC50

GLP-1R, sequence (P43220 24-463): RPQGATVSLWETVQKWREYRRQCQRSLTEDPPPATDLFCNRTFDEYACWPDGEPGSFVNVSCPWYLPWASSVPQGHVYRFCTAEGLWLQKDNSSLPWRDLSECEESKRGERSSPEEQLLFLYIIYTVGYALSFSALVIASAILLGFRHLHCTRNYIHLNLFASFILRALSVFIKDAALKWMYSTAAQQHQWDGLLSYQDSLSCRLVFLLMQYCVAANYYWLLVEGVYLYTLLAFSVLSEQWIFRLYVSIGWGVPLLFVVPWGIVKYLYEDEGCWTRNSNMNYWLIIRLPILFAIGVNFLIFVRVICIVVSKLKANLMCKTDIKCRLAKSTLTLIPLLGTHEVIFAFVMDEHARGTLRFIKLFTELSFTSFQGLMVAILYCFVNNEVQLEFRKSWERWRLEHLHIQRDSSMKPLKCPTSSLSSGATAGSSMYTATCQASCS

SMILES	EC50 (GLP-1R; [2]) [nM]	Predicted Hepatic Clearance (Pred. Cl.) [1] [L/h/kg]	EC50 (GLP-1R; read-out: EC50) [nM]	EC50 (GLP-1R; EC50 (nM)) [nM]
COCCn1c(Cc2ccc(-c3cc(C(F)(F)F)cc(OCc4ccc(C#N)cc4F)n3)cc2F)nc2ccc(C(=O)O)cc21 [Example 90, 2-(4-(6-((4-cyano-2-fluorobenzyl)oxy)-4-(trifluoromethyl)pyridin-2-yl)-2-fluorobenzyl)-1-(2-methoxyethyl)-1H-benzo[d]imidazole-6-carboxylic acid]	72.4	0.6	–	–
N#Cc1ccc(COc2cccc(-c3ccc(Cc4nc5ncc(C(=O)O)cc5n4CC4(CF)CC4)c(F)c3)n2)c(F)c1 [Example 92, 2-(4-(6-((4-cyano-2-fluorobenzyl)oxy)pyridin-2-yl)-2-fluorobenzyl)-1-((1-(fluoromethyl)cyclopropyl)methyl)-1H-imidazo[4,5-b]pyridine-6-carboxylic acid]	–	0.19	2.64	–
COc1cc(Cl)ccc1COc1nccc(-c2ccc(Cc3nc4ccc(C(=O)O)cc4n3CC3(CC#N)CC3)cc2F)n1 [Example 93, 2-(4-(2-((4-chloro-2-methoxybenzyl)oxy)pyrimidin-4-yl)-3-fluorobenzyl)-1-((1-(cyanomethyl)cyclopropyl)methyl)-1H-benzo[d]imidazole-6-carboxylic acid]	0.28	0.87	–	–
N#Cc1ccc(COc2cccc(-c3ccc(Cc4nc5ncc(C(=O)O)cc5n4CC4(CF)CC4)c(F)c3)n2)c(F)c1 [Example 94, 2-(4-(6-((4-cyano-2-fluorobenzyl)oxy)pyridin-2-yl)-2-fluorobenzyl)-1-((1-(fluoromethyl)cyclopropyl)methyl)-1H-imidazo[4,5-b]pyridine-6-carboxylic acid]	0.66	<0.11	–	–
N#CCC1(Cn2c(Cc3ccc(-c4ccc(F)c(OCc5ccc(C#N)cc5F)n4)c(F)c3)nc3ccc(C(=O)O)cc32)CC1 [Example 95, 2-(4-(6-((4-cyano-2-fluorobenzyl)oxy)-5-fluoropyridin-2-yl)-3-fluorobenzyl)-1-((1-(cyanomethyl)cyclopropyl)methyl)-1H-benzo[d]imidazole-6-carboxylic]	0.26	0.4	–	–
COCCn1c(Cc2c(F)cc(-c3ccnnc3OCc3ccc(C#N)cc3F)cc2F)nc2ccc(C(=O)O)cc21 [Example 103, 2-[[4-[3-[(4-cyano-2-fluoro-phenyl)methoxy]pyridazin-4-yl]-2,6-difluoro-phenyl]methyl]-3-(2-methoxyethyl)benzimidazole-5-carboxylic acid]	4980	0.31	–	–
COCCn1c(Cc2cc(F)c(-c3cccc(OCc4ccc(C#N)cc4F)n3)cc2F)nc2ccc(-c3nn[nH]n3)cc21 [Example 104, 4-[[6-[2,5-difluoro-4-[[1-(2-methoxyethyl)-6-(2H-tetrazol-5-yl)benzimidazol-2-yl]methyl]phenyl]-2-pyridyl]oxymethyl]-3-fluoro-benzonitrile]	21.4	0.76	–	–
C[C@@]1(Cn2c(Cc3ccc(-c4cccc(OCc5ccc(C#N)cc5F)n4)cc3F)nc3ccc(C(=O)O)cc32)CCO1 [Example 105, (S)-2-(4-(6-((4-cyano-2-fluorobenzyl)oxy)pyridin-2-yl)-2-fluorobenzyl)-1-((2-methyloxetan-2-yl)methyl)-1H-benzo[d]imidazole-6-carboxylic acid]	0.45	0.38	–	–
N#Cc1ccc(COc2nccc(-c3cc(F)c(Cc4nc5ccc(C(=O)O)nc5n4CC4(CF)CC4)cc3F)n2)c(F)c1 [Example 106, 2-(4-(2-((4-cyano-2-fluorobenzyl)oxy)pyrimidin-4-yl)-2,5-difluorobenzyl)-3-((1-(fluoromethyl)cyclopropyl)methyl)-3H-imidazo[4,5-b]pyridine-5-carboxylic acid]	1.5	<0.11	–	–
COCCn1c(Cc2cnn(-c3cccc(OCc4ccc(C#N)cc4F)n3)c2)nc2ccc(C(=O)O)cc21 [Example 107, 2-[[1-[6-[(4-cyano-2-fluoro-phenyl)methoxy]-2-pyridyl]pyrazol-4-yl]methyl]-3-(2-methoxyethyl)benzimidazole-5-carboxylic acid]	3640	0.83	–	–
COCCn1c(Cc2ccc(-c3cccnc3OCc3ccc(C#N)cc3F)c(F)c2)nc2ccc(C(=O)O)cc21 [Example 108, 2-(4-(2-((4-cyano-2-fluorobenzyl)oxy)pyridin-3-yl)-3-fluorobenzyl)-1-(2-methoxyethyl)-1H-benzo[d]imidazole-6-carboxylic acid]	388	0.26	–	–
COCCn1c(Cc2ccc(-c3ccnc(OCc4ccc(C#N)cc4OC)n3)c(F)c2)nc2ccc(C(=O)O)cc21 [Example 109, 2-(4-(2-((4-cyano-2-methoxybenzyl)oxy)pyrimidin-4-yl)-3-fluorobenzyl)-1-(2-methoxyethyl)-1H-benzo[d]imidazole-6-carboxylic acid]	3.38	0.74	–	–
COCCn1c(Cc2cc(F)c(-c3cccc(OCc4ccc(C#N)cc4F)n3)c(F)c2)nc2ccc(C(=O)O)cc21 [Example 110, 2-(4-(6-((4-cyano-2-fluorobenzyl)oxy)pyridin-2-yl)-3,5-difluorobenzyl)-1-(2-methoxyethyl)-1H-benzo[d]imidazole-6-carboxylic acid]	–	0.42	–	21.8
COCCn1c(Cc2ccc(-c3nc(OCc4ccc(C#N)cc4F)ccc3F)c(F)c2)nc2ccc(C(=O)O)cc21 [Example 114, 2-[[4-[6-[(4-cyano-2-fluoro-phenyl)methoxy]-3-fluoro-2-pyridyl]-3-fluoro-phenyl]methyl]-3-(2-methoxyethyl)benzimidazole-5-carboxylic acid]	932	0.355	–	–
CC1(Cn2c(Cc3ccc(-c4cccc(OCc5ccc(C#N)cc5F)n4)cc3C#N)nc3ccc(C(=O)O)cc32)CC1 [Example 117, 2-(2-cyano-4-(6-((4-cyano-2-fluorobenzyl)oxy)pyridin-2-yl)benzyl)-1-((1-methylcyclopropyl)methyl)-1H-benzo[d]imidazole-6-carboxylic acid]	62.2	<0.11	–	–

Now from value to molecule, other results behind:

EC50 (GLP-1R; [2]) [nM]	Predicted Hepatic Clearance (Pred. Cl.) [1] [L/h/kg]	SMILES	EC50 (GLP-1R; read-out: EC50) [nM]	EC50 (GLP-1R; EC50 (nM)) [nM]
2630	0.3	COCCn1c(Cc2ccc(-c3nc(OCc4ccc(C#N)cc4F)ccc3F)cc2F)nc2ccc(C(=O)O)cc21 [Example 91, 2-(4-(6-((4-cyano-2-fluorobenzyl)oxy)-3-fluoropyridin-2-yl)-2-fluorobenzyl)-1-(2-methoxyethyl)-1H-benzo[d]imidazole-6-carboxylic acid]	–	–
30.9	1.07	COCCn1c(Cc2ccc(-c3cccc(OCc4ccncc4OC)n3)c(F)c2)nc2ccc(C(=O)O)cc21 [Example 96, 2-(3-fluoro-4-(6-((3-methoxypyridin-4-yl)methoxy)pyridin-2-yl)benzyl)-1-(2-methoxyethyl)-1H-benzo[d]imidazole-6-carboxylic acid]	–	–
2780	0.21	COCCn1c(Cc2ccc(-c3cc(C(=O)O)cc(OCc4ccc(C#N)cc4F)n3)cc2F)nc2ccc(C(=O)O)cc21 [Example 97, 2-(4-(4-carboxy-6-((4-cyano-2-fluorobenzyl)oxy)pyridin-2-yl)-2-fluorobenzyl)-1-(2-methoxyethyl)-1H-benzo[d]imidazole-6-carboxylic acid]	–	–
913	0.44	COCCn1c(Cc2ccc(-c3cccc(Oc4cccc5ccccc45)n3)cc2F)nc2ccc(C(=O)O)cc21 [Example 98, 2-(2-fluoro-4-(6-(naphthalen-1-yloxy)pyridin-2-yl)benzyl)-1-(2-methoxyethyl)-1H-benzo[d]imidazole-6-carboxylic acid]	–	–
25.9	0.4	COCCn1c(Cc2ccc(-c3cccc(OCc4ccc(C#N)cc4F)n3)c(Cl)c2)nc2ccc(C(=O)O)cc21 [Example 101, 2-(3-chloro-4-(6-((4-cyano-2-fluorobenzyl)oxy)pyridin-2-yl)benzyl)-1-(2-methoxyethyl)-1H-benzo[d]imidazole-6-carboxylic acid]	–	–
56.5	0.31	COCCn1c(Cc2cnc(-c3cccc(OCc4ccc(C#N)cc4F)n3)cn2)nc2ccc(C(=O)O)cc21 [Example 102, 2-((5-(6-((4-cyano-2-fluorobenzyl)oxy)pyridin-2-yl)pyrazin-2-yl)methyl)-1-(2-methoxyethyl)-1H-benzo[d]imidazole-6-carboxylic acid]	–	–
3.76	0.55	COCCn1c(Cc2ccc(-c3ccnc(OCc4ccc(C#N)cc4OC)n3)cc2F)nc2ccc(C(=O)O)cc21 [Example 112, 2-(4-(2-((4-cyano-2-methoxybenzyl)oxy)pyrimidin-4-yl)-2-fluorobenzyl)-1-(2-methoxyethyl)-1H-benzo[d]imidazole-6-carboxylic acid]	–	–
2150	0.59	COCCn1c(Cc2ccc(-c3cccc(NC(=O)c4ccc(C#N)cc4F)n3)cc2F)nc2ccc(C(=O)O)cc21 [Example 113, 2-(4-(6-(4-cyano-2-fluorobenzamido)pyridin-2-yl)-2-fluorobenzyl)-1-(2-methoxyethyl)-1H-benzo[d]imidazole-6-carboxylic acid]	–	–
80.9	0.5	COCCn1c(Cc2ccc(-c3nc(OCc4ccc(C#N)cc4F)ccc3Cl)cc2F)nc2ccc(C(=O)O)cc21 [Example 115, 2-[[4-[3-chloro-6-[(4-cyano-2-fluoro-phenyl)methoxy]-2-pyridyl]-2-fluoro-phenyl]methyl]-3-(2-methoxyethyl)benzimidazole-5-carboxylic acid]	–	–
2520	0.44	COCCn1c(Cc2ccc(-c3cccc(NC(=O)c4ccccc4)n3)cc2F)nc2ccc(C(=O)O)cc21 [Example 116, 2-(4-(6-benzamidopyridin-2-yl)-2-fluorobenzyl)-1-(2-methoxyethyl)-1H-benzo[d]imidazole-6-carboxylic acid]	–	–

— patent publication US11702404B2, “GLP-1R modulating compounds” (priority 2019, dated 2023)
